Test results: patent US20260234130A1, “EP2 Antagonist Compounds” (Reservoir Neuroscience, Inc., priority 2022, published 2026)

target: T1, EP2 receptor (Homo sapiens, UniProt P43116); test: EP2 potency assay (cAMP TR-FRET, LANCE Ultra cAMP kit) in transfected CHO-K1 cells stimulated with PGE2 at EC80; assay type: cell-based; conditions: Table (IV), EP2 antagonism, CHO-K1 cells expressing EP2, PGE2 at EC80
T1 construct: expressed in transfected cells; host or cells: CHO-K1 cells (ATCC), transient transfection with FuGENE 6
Description: Compound potency was measured using a cAMP TR-FRET assay. CHO-K1 cells (ATCC) were seeded at a density of 9.75×105 in 6 cm plates, and then on the following day cell media was changed to Opti-Mem I reduced serum media (Gibco), and transfected with a plasmid for expression of the EP2 receptor (the target receptor of interest), using the FuGENE 6 Transfection reagent (Promega). After 6 hours incubation, the cell media was replaced with F12 medium supplemented with 10% FBS and 100 U/ml Pen-Strep. 24 hours after transfection, cells were harvested and seeded at a density of 3000 cells/well in a 384 well plate to perform the cAMP assay, using the LANCE Ultra cAMP assay kit (PerkinElmer). For each test compound of interest, 10 nl/well of serially diluted test compound was added to each well, resulting in a range of 10 serially diluted compound concentrations from 10000 nM to 0.038 nM, with duplicate wells for each concentration. Plates were then centrifuged at 1000 rpm for 1 min, agitated at 600 rpm at R.T. for 2 min, and incubated at 25° C. for 5 min. The reference agonist, prostaglandin E2 (MCE), was added to each well at the appropriate concentration to reach its EC80 value. Plates were then centrifuged at 1000 rpm for 1 min, agitated at 600 rpm at R.T. for 2 min, and incubated at 25° C. for 30 min. To measure levels of cAMP, 5 μl/well of Eu-cAMP working solution and 5 μl/well of Ulight-anti-cAMP working solution were added to each well, and the plate was centrifuged at 1000 rpm for 1 min, agitated at 600 rpm at R.T. for 2 min, and incubated at 25° C. for 15 min. Levels of TR-FRET fluorescence were measured in each well using an EnVision microplate reader (excitation wavelength=337 nm and emission wavelength=615 and 665 nm). A dose-response curve was prepared by plotting percent inhibition for each compound concentration, and then IC50 was calculated by fitting a curve to the plotted values and extrapolating the IC50 concentration. […] Potency data is grouped into categories of AA (IC50<100 nM); A (IC50=100 to 500 nM); B (IC50=500 nM to […]); C (IC50=1 μM to 5 μM); and D (IC50>5 μM).

T1 sequence (P43116 whole entry): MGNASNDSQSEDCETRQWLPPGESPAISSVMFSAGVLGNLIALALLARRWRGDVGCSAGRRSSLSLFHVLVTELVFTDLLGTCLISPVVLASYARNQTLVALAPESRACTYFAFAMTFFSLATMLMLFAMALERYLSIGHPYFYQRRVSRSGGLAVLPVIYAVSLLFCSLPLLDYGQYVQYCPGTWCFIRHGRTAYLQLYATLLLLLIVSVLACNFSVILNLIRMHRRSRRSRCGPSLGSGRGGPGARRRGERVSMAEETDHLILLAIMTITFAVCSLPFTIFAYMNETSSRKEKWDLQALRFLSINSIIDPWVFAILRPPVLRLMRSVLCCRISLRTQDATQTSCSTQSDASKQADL

| IC50 | SMILES |
| --- | --- |
| > 5000 nM | COc1ccc(C(N2CCC(COc3ccc(-c4ccc(C#N)cc4)cc3)(C(=O)O)C2)C(F)(F)F)cc1 (centres unmarked) [I-2, 3-(((4′-cyano-[1,1′-biphenyl]-4-yl)oxy)methyl)-1-(2,2,2-trifluoro-1-(4-methoxyphenyl)ethyl)pyrrolidine-3-carboxylic acid] |
| < 100 nM | COc1ccc(C(=O)N2CCC(COc3ccc(C45CC(C#N)(C4)C5)cc3)(C(=O)O)C2)cc1 (centres unmarked) [I-6, 3-((4-(3-cyanobicyclo[1.1.1]pentan-1-yl)phenoxy)methyl)-1-(4-methoxybenzoyl)pyrrolidine-3-carboxylic acid] |
| 100 to 500 nM | COc1ccc(C(=O)N2CCC(COc3ccc(C45CC(C4)C5)cc3)(C(=O)O)C2)cc1 (centres unmarked) [I-7, 3-((4-(bicyclo[1.1.1]pentan-1-yl)phenoxy)methyl)-1-(4-methoxybenzoyl)pyrrolidine-3-carboxylic acid] |
| 100 to 500 nM | COc1ccc(C(=O)N2CCC(COc3ccc(C45CC(C(N)=O)(C4)C5)cc3)(C(=O)O)C2)cc1 (centres unmarked) [I-8, 3-(4-{3-carbamoylbicyclo[1.1.1]pentan-1-yl}phenoxymethyl)-1-(4-methoxybenzoyl)pyrrolidine-3-carboxylic acid] |
| > 5000 nM | COc1ccc(C(=O)N2CCC(COc3ccc(-c4ccc(C#N)cc4)cc3)(S(C)(=N)=O)C2)cc1 (centres unmarked) [I-9, 4′-((1-(4-methoxybenzoyl)-3-(S-methylsulfonimidoyl)pyrrolidin-3-yl)methoxy)-[1,1′-biphenyl]-4-carbonitrile] |
| > 5000 nM | COc1ccc(C(=O)N2CCC(COc3ccc(-c4ccc(C#N)cc4)cc3)(S(=O)(=O)NS(C)(=O)=O)C2)cc1 (centres unmarked) [I-10, 3-(((4′-cyano-[1,1′-biphenyl]-4-yl)oxy)methyl)-1-(4-methoxybenzoyl)-N-(methylsulfonyl)pyrrolidine-3-sulfonamide] |
| > 5000 nM | COc1ccc(C(=O)N2CCC(COc3ccc(C45CC(C(=O)O)(C4)C5)cc3)(C(=O)O)C2)cc1 (centres unmarked) [I-11, 3-((4-(3-carboxybicyclo[1.1.1]pentan-1-yl)phenoxy)methyl)-1-(4-methoxybenzoyl)pyrrolidine-3-carboxylic acid] |
| > 5000 nM | COc1ccc(C(=O)N2CCC(COc3ccc(-c4ccc(C#N)cc4)cc3)(C(O)C(F)(F)F)C2)cc1 (centres unmarked) [I-12, 4′-((1-(4-methoxybenzoyl)-3-(2,2,2-trifluoro-1-hydroxyethyl)pyrrolidin-3-yl)methoxy)-[1,1′-biphenyl]-4-carbonitrile] |
| > 5000 nM | COc1ccc(C(=O)N2CCC(COc3ccc(-c4ccc(C#N)cc4)cc3)(C(O)(O)C(F)(F)F)C2)cc1 (centres unmarked) [I-13, 4′-((1-(4-methoxybenzoyl)-3-(2,2,2-trifluoro-1,1-dihydroxyethyl)pyrrolidin-3-yl)methoxy)-[1,1′-biphenyl]-4-carbonitrile] |
| > 5000 nM | COc1ccc(C(=O)N2CCC(COc3ccc(Br)cc3)(C(O)C(F)(F)F)C2)cc1 (centres unmarked) [I-14, (3-((4-bromophenoxy)methyl)-3-(2,2,2-trifluoro-1-hydroxyethyl)pyrrolidin-1-yl)(4-methoxyphenyl)methanone] |

same assay, conditions: Table (V), EP2 antagonism, CHO-K1 cells expressing EP2, PGE2 at EC80

| SMILES | IC50 |
| --- | --- |
| Fc1ccc2c(ccn2-c2cc(Cl)c3c(c2)CN(Cc2cnc(OCC(F)(F)F)nc2)CCO3)c1 [II-1, 9-chloro-7-(5-fluoro-1H-indol-1-yl)-4-((2-(2,2,2-trifluoroethoxy)pyrimidin-5-yl)methyl)-2,3,4,5-tetrahydrobenzo [f][1,4]oxazepine] | > 5000 nM |
| Cn1cc(-c2ncc(CN3CCOc4c(Cl)cc(-n5ccc6cc(F)ccc65)cc4C3)cn2)cn1 [II-2, 9-chloro-7-(5-fluoro-1H-indol-1-yl)-4-((2-(1-methyl-1H-pyrazol-4-yl)pyrimidin-5-yl)methyl)-2,3,4,5-tetrahydrobenzo[f][1,4] oxazepine] | 1000 to 5000 nM |
| COc1ncc(CN2CCOc3c(Cl)cc(N4CCN(C)c5cc(F)ccc54)cc3C2)cn1 [II-3, 9-chloro-7-(6-fluoro-4-methyl-3,4-dihydroquinoxalin-1(2H)-yl)-4-((2-methoxypyrimidin-5-yl)methyl)-2,3,4,5-tetrahydrobenzo[f][1,4] oxazepine] | > 5000 nM |
| O=c1ncc(CN2CCOc3c(Cl)cc(-n4ccc5cc(F)c(F)cc54)cc3C2)c[nH]1 [II-4, 5-((9-chloro-7-(5,6-difluoro-1H-indol-1-yl)-2,3-dihydrobenzo[f][1,4]oxazepin-4(5H)-yl)methyl)pyrimidin-2(1H)-one] | 1000 to 5000 nM |
| Cc1ncc(CN2CCOc3c(Cl)cc(-n4ccc5cc(F)ccc54)cc3C2)cn1 [II-5, 9-chloro-7-(5-fluoro-1H-indol-1-yl)-4-((2-methylpyrimidin-5-yl)methyl)-2,3,4,5-tetrahydrobenzo[f][1,4] oxazepine] | 100 to 500 nM |
| N#Cc1ncc(CN2CCOc3c(Cl)cc(-n4ccc5cc(F)ccc54)cc3C2)cn1 [II-6, 5-((9-chloro-7-(5-fluoro-1H-indol-1-yl)-2,3-dihydrobenzo[f][1,4]oxazepin-4(5H)-yl)methyl)pyrimidine-2-carbonitrile] | 500 to 1000 nM |
| Fc1ccc2c(ccn2-c2cc(Cl)c3c(c2)CN(Cc2cnc(-n4cccn4)nc2)CCO3)c1 [II-7, 4-((2-(1H-pyrazol-1-yl)pyrimidin-5-yl)methyl)-9-chloro-7-(5-fluoro-1H-indol-1-yl)-2,3,4,5-tetrahydrobenzo[f][1,4] oxazepine] | 1000 to 5000 nM |
| Fc1ccc2c(ccn2-c2cc(Cl)c3c(c2)CN(Cc2cnc(C(F)(F)F)nc2)CCO3)c1 [II-8, 9-chloro-7-(5-fluoro-1H-indol-1-yl)-4-((2-(trifluoromethyl)pyrimidin-5-yl)methyl)-2,3,4,5-tetrahydrobenzo[f][1,4] oxazepine] | 1000 to 5000 nM |
| Fc1ccc2c(ccn2-c2cc(Cl)c3c(c2)CN(Cc2cncnc2)CCO3)c1 [II-9, 9-chloro-7-(5-fluoro-1H-indol-1-yl)-4-(pyrimidin-5-ylmethyl)-2,3,4,5-tetrahydrobenzo[f][1,4] oxazepine] | 100 to 500 nM |
| COc1ncc(CN2CCOc3c(Cl)cc(-n4ccc5cc(C6CC6)ccc54)cc3C2)cn1 [II-10, 9-chloro-7-(5-cyclopropyl-1H-indol-1-yl)-4-((2-methoxypyrimidin-5-yl)methyl)-2,3,4,5-tetrahydrobenzo[f][1,4] oxazepine] | > 5000 nM |

The next lines start with the values.

| IC50 | SMILES |
| --- | --- |
| 100 to 500 nM | Nc1ncc(CN2CCOc3c(Cl)cc(-n4ccc5cc(F)ccc54)cc3C2)c(N)n1 [II-11, 5-((9-chloro-7-(5-fluoro-1H-indol-1-yl)-2,3-dihydrobenzo[f][1,4]oxazepin-4(5H)-yl)methyl)pyrimidin-2,4-diamine] |
| 1000 to 5000 nM | CS(=O)(=O)Nc1ncc(CN2CCOc3c(Cl)cc(-n4ccc5cc(F)ccc54)cc3C2)cn1 [II-13] |
| 1000 to 5000 nM | CC(=O)Nc1ncc(CN2CCOc3c(Cl)cc(-n4ccc5cc(F)ccc54)cc3C2)cn1 [II-14, N-(5-((9-chloro-7-(5-fluoro-1H-indol-1-yl)-2,3-dihydrobenzo[f][1,4]oxazepin-4(5H)-yl)methyl)pyrimidin-2-yl)acetamide] |
| < 100 nM | O=C(O)c1ccc(CN2CCOc3c(Cl)cc(-n4ccc5cc(F)ccc54)cc3C2)cn1 [II-15, 5-((9-chloro-7-(5-fluoro-1H-indol-1-yl)-2,3-dihydrobenzo[f][1,4]oxazepin-4(5H)-yl)methyl)picolinic acid] |
| > 5000 nM | Nc1ncc(CN2CCOc3c(Cl)cc(-n4ccc5cc(F)ccc54)cc3C2)c(=O)[nH]1 [II-16, 2-amino-5-((9-chloro-7-(5-fluoro-1H-indol-1-yl)-2,3-dihydrobenzo[f][1,4]oxazepin-4(5H)-yl)methyl)pyrimidin-4(3H)-one] |
| 100 to 500 nM | N#CCc1ncc(CN2CCOc3c(Cl)cc(-n4ccc5cc(F)ccc54)cc3C2)cn1 [II-17, 2-(5-((9-chloro-7-(5-fluoro-1H-indol-1-yl)-2,3-dihydrobenzo[f][1,4]oxazepin-4(5H)-yl)methyl)pyrimidin-2-yl)acetonitrile] |
| 100 to 500 nM | COC(=O)c1ccc(CN2CCOc3c(Cl)cc(-n4ccc5cc(F)ccc54)cc3C2)cn1 [II-19, methyl 5-((9-chloro-7-(5-fluoro-1H-indol-1-yl)-2,3-dihydrobenzo[f][1,4]oxazepin-4(5H)-yl)methyl)picolinate] |
| 500 to 1000 nM | COCCc1ncc(CN2CCOc3c(Cl)cc(-n4ccc5cc(F)ccc54)cc3C2)cn1 [II-20, 9-chloro-7-(5-fluoro-1H-indol-1-yl)-4-((2-(2-methoxyethyl)pyrimidin-5-yl)methyl)-2,3,4,5-tetrahydrobenzo[f][1,4]oxazepine] |
| 500 to 1000 nM | Fc1ccc2c(ccn2-c2cc(Cl)c3c(c2)CN(Cc2cnc(C4CC4)nc2)CCO3)c1 [II-21, 9-chloro-4-((2-cyclopropylpyrimidin-5-yl)methyl)-7-(5-fluoro-1H-indol-1-yl)-2,3,4,5-tetrahydrobenzo[f][1,4]oxazepine] |
